Data taken from US20090304744A1, “METHODS OF ENHANCING IMMUNE RESPONSE IN THE INTRADERMAL COMPARTMENT AND COMPOUNDS USEFUL THEREOF” (priority 2003, published 2009).
Like-named read-outs stand apart in the source and are kept apart here.

Legend:
[1] = tested on: influenza antigen (Influenza APR834); type: in vivo, Balb/c mice; settings: for Trend in immune response as indicated by ELISA signal (1:123 serum screening dilution): mice
swine skin = settings: for tolerated amphotericin per dose / tolerated total amphotericin per dose: Draize score 1 hour post administration; for Erythema Draize scores (tolerability): Tween 80 5%, Deoxycholate 0.1%, D-sorbitol 5%, Lutrol 15%, without antigen, 200 ul per injection, 31 gauge 1.5 mm, 1 h and 24 h readings
guinea pig skin = assay: Guinea pig erythema Draize scoring after ID delivery of excipients; type: in vivo, Hartley guinea pigs; settings: Tween 80 5%, Deoxycholate 0.1%, D-sorbitol 5%, Lutrol 15%; without antigen, 50 ul per injection, 34 gauge 1.0 mm; immediate, 1 h and 24 h readings
Source text: The methods of the invention provide fundamental principles and guidelines whereby optimum parameters may be determined for delivering immunogenic compositions to the dermal compartment (including epidermal and intradermal compartments) wherein the excipients have optimum adjuvant properties and the formulations of the invention have enhanced efficacy in comparison to when the same formulation is delivered using conventional modes of delivery, including intramuscular and subcutaneous delivery. The invention provides methods wherein the formulations of the invention have been screened to have optimum concentration ranges for delivery to the optimum depth of the intradermal compartment such that they have adjuvant properties, resulting in one or more of the following properties: minimal to no skin irritation as determined and assessed using conventional modes of analysis of skin reactions using visual methods such as Draize scoring (For a typical draize scoring analysis see table below); minimal to no hemolysis as determined using standard methods known in the art, and enhanced immune response as measured by enhanced seroconversion and/or enhanced antibody titers.
Erythema Draize scores for various excipients were determined using procedures described in Section 5.4, above. In one study, Tween™ 80 (5%), Deoxycholate (0.1%), D-sorbitol (5%) or Lutrol™ (15%) was administered (50 μl per injection) without the antigen to Hartley guinea pigs using 34 gauge, 1.0 mm needles. […] Deeper administrations will be necessary for deoycholate to be used reliably at this concentration. From left to right, the reading immediately after administration, the one-hour reading and the 24-hour reading.

[2] = tested on: trivalent test antigen (New Calcdonia, Panama and B-Hong Kong); design: species or system Hartley Guinea Pigs; settings: guinea pig, in vivo
[3] = Yorkshire swine, 1.5 mm depth, listed as Amp-B

Compound: C[C@@H]1[C@H](O)[C@@H](C)/C=C/C=C/C=C/C=C/C=C/C=C/C=C/[C@H](O[C@@H]2O[C@H](C)[C@@H](O)[C@H](N)[C@@H]2O)C[C@@H]2O[C@](O)(C[C@@H](O)C[C@@H](O)[C@H](O)CC[C@@H](O)C[C@@H](O)CC(=O)O[C@H]1C)C[C@H](O)[C@H]2C(=O)O [Amphotericin B, reference compound]
- Trend in immune response as indicated by ELISA signal (1:123 serum screening dilution) ([1]; excipient 20 ng/ml with FLUZONE, ID): 0.975
- Trend in immune response as indicated by ELISA signal (1:123 serum screening dilution) ([1]; excipient 60 ng/ml with FLUZONE, ID): 1.575
- Trend in immune response as indicated by ELISA signal (1:123 serum screening dilution) ([1]; excipient 180 ng/ml with FLUZONE, ID): 1.018
- tolerated amphotericin per dose (swine skin; Yorkshire swine, 1.5 mm depth): up to 600 ng/100 ul
- tolerated total amphotericin per dose (swine skin; Yorkshire swine, 1.5 mm depth): ≤ 1200 ng/200 ul
- tolerated amphotericin per dose (swine skin; [3]): 600 ng/100 ul
- tolerated total amphotericin per dose (swine skin; [3]): 1200 ng/200 ul
- tolerability by Draize score analysis (swine skin; alone and as a mixture with FLUZONE vaccine, 1.5 mm depth, Yorkshire swine): well tolerated

Compound: OC[C@@H](O)[C@@H](O)[C@H](O)[C@@H](O)CO [D-sorbitol]
- Erythema Draize scores (tolerability) (guinea pig skin): reasonably well-tolerated
- serum titer enhancement vs equal amount of Fluzone without sorbitol ([1]; Fluzone supplemented with sorbitol, ID, six point ELISA): 3 ×
- Trend in immune response as indicated by ELISA signal (1:123 serum screening dilution) ([1]; excipient 2% w/v with FLUZONE, ID): 1.062
- Trend in immune response as indicated by ELISA signal (1:123 serum screening dilution) ([1]; excipient 10% w/v with FLUZONE, ID): 1.102
- Trend in immune response as indicated by ELISA signal (1:123 serum screening dilution) ([1]; excipient 58% w/v with FLUZONE, ID): 1.58
- erythema (swine skin; 10% W/V, 1-2 mm depth, 20-24 hours post administration, Yorkshire swine): mild erythema
- tolerability (swine skin; 10%, delivered to 1-2 mm depth, Yorkshire swine): well tolerated
- Erythema Draize scores (tolerability) (swine skin): reasonably well-tolerated

Compound: C[C@H](CCC(=O)[O-])[C@H]1CC[C@H]2[C@@H]3CC[C@@H]4C[C@H](O)CC[C@]4(C)[C@H]3C[C@H](O)[C@]12C.[Na+] [Deoxycholate, sodium deoxycholate]
- Erythema Draize scores (tolerability) (guinea pig skin): just above the acceptable draize score
- animals seroconverted 21 days after immunization ([1]; DOC-supplemented (0.1% sodium deoxycholate) FLUZONE, ID, Balb/c mice): 5 of 5
- median titer ([1]; ID formulation containing 0.1% sodium deoxycholate vs IM and ID without, Balb/c mice): best median titer
- Erythema Draize scores (tolerability) (swine skin): just above the acceptable draize score
- skin compatibility (swine skin; deoxycholate 0.05 and 0.1% +/- trivalent vaccine, 1.5 mm depth, Yorkshire swine): performed well
- skin compatibility (swine skin; deoxycholate 0.5% W/V and higher, 1.5 mm depth): could not be tolerated
- hemagglutin specific titer vs FLUZONE alone ID and FLUZONE alone IM [2]: outperformed

Compound: CCO [Ethanol]
- Trend in immune response as indicated by ELISA signal (1:123 serum screening dilution) ([1]; excipient 0.05% v/v with FLUZONE, ID): 0.901
- Trend in immune response as indicated by ELISA signal (1:123 serum screening dilution) ([1]; excipient 0.15% v/v with FLUZONE, ID): 2.742
- Trend in immune response as indicated by ELISA signal (1:123 serum screening dilution) ([1]; excipient 0.45% v/v with FLUZONE, ID): 1.530

Compound: O=S([O-])O.[Na+] [Sodium Bisulfite]
- Trend in immune response as indicated by ELISA signal (1:123 serum screening dilution) ([1]; excipient 0.3% w/v with FLUZONE, ID): 0.808
- Trend in immune response as indicated by ELISA signal (1:123 serum screening dilution) ([1]; excipient 0.9% w/v with FLUZONE, ID): 1.833
- Trend in immune response as indicated by ELISA signal (1:123 serum screening dilution) ([1]; excipient 2.7% w/v with FLUZONE, ID): 2.048

Compound: NC(N)=O [Urea]
- Trend in immune response as indicated by ELISA signal (1:123 serum screening dilution) ([1]; excipient 1% w/v with FLUZONE, ID): 0.979
- Trend in immune response as indicated by ELISA signal (1:123 serum screening dilution) ([1]; excipient 5% w/v with FLUZONE, ID): 1.585
- Trend in immune response as indicated by ELISA signal (1:123 serum screening dilution) ([1]; excipient 20% w/v with FLUZONE, ID): 1.555

Compound: Triton X-100
- Trend in immune response as indicated by ELISA signal (1:123 serum screening dilution) ([1]; excipient 0.0001% w/v with FLUZONE, ID): 1.321
- Trend in immune response as indicated by ELISA signal (1:123 serum screening dilution) ([1]; excipient 0.0009% w/v with FLUZONE, ID): 1.214

Compound: oxtoxynol 9 [Triton N-101]
- Trend in immune response as indicated by ELISA signal (1:123 serum screening dilution) ([1]; excipient 0.13% w/v with FLUZONE, ID): 0.805
- Trend in immune response as indicated by ELISA signal (1:123 serum screening dilution) ([1]; excipient 1.3% w/v with FLUZONE, ID): 2.035
